Target: Proto-oncogene tyrosine-protein kinase Src (Homo sapiens, UniProt P12931)
Test: Concentration of compound required for inhibiting the binding of the fluorescent probe to the c-Src tyrosine kinase SH2 domain by 50%

Chain of Proto-oncogene tyrosine-protein kinase Src (P12931 2-536 limits assumed): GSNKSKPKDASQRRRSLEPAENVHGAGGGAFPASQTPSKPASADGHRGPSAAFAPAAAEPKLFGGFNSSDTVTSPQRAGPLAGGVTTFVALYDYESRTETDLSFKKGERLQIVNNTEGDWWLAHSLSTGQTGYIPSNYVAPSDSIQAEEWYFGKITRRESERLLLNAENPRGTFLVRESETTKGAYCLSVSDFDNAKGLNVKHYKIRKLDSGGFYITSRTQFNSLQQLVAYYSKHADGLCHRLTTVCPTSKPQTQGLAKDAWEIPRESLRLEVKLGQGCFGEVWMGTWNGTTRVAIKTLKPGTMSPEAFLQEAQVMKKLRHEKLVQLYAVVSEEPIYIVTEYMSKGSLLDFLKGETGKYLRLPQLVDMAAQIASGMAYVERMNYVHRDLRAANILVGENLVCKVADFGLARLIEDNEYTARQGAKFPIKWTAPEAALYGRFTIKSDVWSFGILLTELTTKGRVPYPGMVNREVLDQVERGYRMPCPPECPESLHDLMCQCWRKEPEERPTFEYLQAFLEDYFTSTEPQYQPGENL

| IC50 [µM] | Compound |
| --- | --- |
| 90.7 | CC[C@H](C)[C@H](NC(=O)C[C@H](NC(=O)[C@H](CCC(=O)O)NC(=O)[C@H](Cc1ccc(OP(=O)(O)O)cc1)NC(C)=O)C(=O)O)C(=O)O |
| 3.3 | CC[C@H](C)[C@H](NC(=O)[C@H](CCC(=O)O)NC(=O)[C@@H]1CCC(=O)N[C@@H](Cc2ccc(OP(=O)(O)O)cc2)C(=O)N1)C(=O)O |
| 1.2 | CC[C@@H](C)[C@H](NC(=O)[C@H](CCC(=O)O)NC(=O)CC[C@@H]1NC(=O)[C@H](Cc2ccc(OP(=O)(O)O)cc2)NC1=O)C(=O)O |
| > 100 | CC[C@H](C)[C@H](NC(=O)C[C@H](NC(=O)[C@H](CCC(=O)O)NC(=O)[C@@H](N)Cc1ccc(OP(=O)(O)O)cc1)C(=O)O)C(=O)O |
| 1.1 | CC[C@H](C)[C@H](NC(=O)CC[C@@H]1NC(=O)[C@H](CCC(=O)O)NC(=O)[C@H](Cc2ccc(OP(=O)(O)O)cc2)NC1=O)C(=O)O |
| 76.3 | CC(C)[C@H](NC(=O)C[C@@H](CC(=O)O)NC(=O)[C@H](CCC(=O)O)NC(=O)[C@@H](N)Cc1ccc(OP(=O)(O)O)cc1)C(=O)O |

The remaining lines, values behind:

| Compound | IC50 [µM] |
| --- | --- |
| CC[C@@H](C)[C@H](NC(=O)[C@H](CCC(=O)O)NC(=O)CC[C@H](NC(=O)[C@@H](N)Cc1ccc(OP(=O)(O)O)cc1)C(=O)O)C(=O)O | > 100 |
| CC[C@@H](C)[C@H](NC(=O)[C@H](CCC(=O)O)NC(=O)CC[C@H](NC(=O)[C@H](Cc1ccc(OP(=O)(O)O)cc1)NC(C)=O)C(=O)O)C(=O)O | 69.5 |
| CC[C@H](C)[C@H](NC(=O)CC[C@H](NC(=O)[C@H](CCC(=O)O)NC(=O)[C@H](Cc1ccc(OP(=O)(O)O)cc1)NC(C)=O)C(=O)O)C(=O)O | 80.7 |
| CC[C@H](C)[C@H](NC(=O)CC[C@H](NC(=O)[C@H](CCC(=O)O)NC(=O)[C@@H](N)Cc1ccc(OP(=O)(O)O)cc1)C(=O)O)C(=O)O | > 100 |
| CC(C)[C@H](NC(=O)C[C@@H](CCC(=O)O)NC(=O)C(NC(=O)[C@@H](N)Cc1ccc(OP(=O)(O)O)cc1)C(=O)O)C(=O)O (single isomer, unassigned) | 83.2 |
| CC[C@H](C)[C@H](NC(=O)[C@@H]1CCC(=O)N[C@@H](Cc2ccc(OP(=O)(O)O)cc2)C(=O)N[C@@H](CCC(=O)O)C(=O)N1)C(=O)O | 5.9 |
| CC[C@H](C)[C@H](NC(=O)C[C@@H]1NC(=O)[C@H](CCC(=O)O)NC(=O)[C@H](Cc2ccc(OP(=O)(O)O)cc2)NC1=O)C(=O)O | 1.5 |
| CC[C@@H](C)[C@H](NC(=O)[C@H](CCC(=O)O)NC(=O)C[C@H](NC(=O)[C@@H](N)Cc1ccc(OP(=O)(O)O)cc1)C(=O)O)C(=O)O | > 100 |
| CC(=O)N[C@@H](Cc1ccc(OP(=O)(O)O)cc1)C(=O)N[C@@H](C(=O)O)C(=O)N[C@H](CCC(=O)O)CC(=O)N[C@H](C(=O)O)C(C)C | 34.6 |
| CC[C@@H](C)[C@H](NC(=O)[C@H](CCC(=O)O)NC(=O)C[C@@H]1NC(=O)[C@H](Cc2ccc(OP(=O)(O)O)cc2)NC1=O)C(=O)O | 12.1 |
| CC[C@@H](C)[C@H](NC(=O)[C@H](CCC(=O)O)NC(=O)C[C@H](NC(=O)[C@H](Cc1ccc(OP(=O)(O)O)cc1)NC(C)=O)C(=O)O)C(=O)O | 75.4 |
| CC(=O)N[C@@H](Cc1ccc(OP(=O)(O)O)cc1)C(=O)N[C@@H](CCC(=O)O)C(=O)N[C@H](CC(=O)O)CC(=O)N[C@H](C(=O)O)C(C)C | 25.7 |
